# Results taken from PubChem BioAssay (NCI).
#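 At the GI50, growth is halved. TGI is the concentration that stops growth completely.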
# Key:
# Test in all cases: NCI anticancer screen, dose series, 384-well format
# T-47D breast = tested on: T-47D breast
# K-562 leukemia = tested on: K-562 leukemia
# SK-OV-3 ovarian = tested on: SK-OV-3 ovarian
# OVCAR-3 ovarian = tested on: OVCAR-3 ovarian
# SF-295 CNS = tested on: SF-295 CNS
# NCI-H460 NSCLC = tested on: NCI-H460 NSCLC
# NCI-H322M lung = tested on: NCI-H322M lung
# RXF 393 renal = tested on: RXF 393 renal
# U251 glioblastoma = tested on: U251 glioblastoma
# MCF7 breast = tested on: MCF7 breast
# A498 renal = tested on: A498 renal
# EKVX NSCLC = tested on: EKVX NSCLC
# COLO 205 colon = tested on: COLO 205 colon
# CCRF-CEM leukemia = tested on: CCRF-CEM leukemia
# KM12 colon = tested on: KM12 colon
# SK-MEL-28 melanoma = tested on: SK-MEL-28 melanoma
# HCT-116 colon = tested on: HCT-116 colon
# SK-MEL-5 melanoma = tested on: SK-MEL-5 melanoma
# SW-620 colon = tested on: SW-620 colon
# HCC-2998 colon = tested on: HCC-2998 colon
# RPMI-8226 leukemia = tested on: RPMI-8226 leukemia
# OVCAR-4 ovarian = tested on: OVCAR-4 ovarian
# HS 578T breast = tested on: HS 578T breast
# IGROV1 ovarian = tested on: IGROV1 ovarian
# SR leukemia = tested on: SR leukemia
# MDA-MB-468 breast = tested on: MDA-MB-468 breast
# M14 melanoma = tested on: M14 melanoma
# SF-268 CNS = tested on: SF-268 CNS
# MDA-MB-435 melanoma = tested on: MDA-MB-435 melanoma
smiles,measurement,setting,value
C=CC(=O)N[C@@H]1CN(c2nc(Nc3cn(C)nc3OC)c3ncn(C)c3n2)C[C@H]1F,GI50,T-47D breast,20.7 µM
same,TGI,T-47D breast,> 100 µM
same,GI50,K-562 leukemia,23.2 µM
same,TGI,K-562 leukemia,52 µM
same,GI50,SK-OV-3 ovarian,12.2 µM
same,TGI,SK-OV-3 ovarian,> 100 µM
same,GI50,OVCAR-3 ovarian,12.3 µM
same,TGI,OVCAR-3 ovarian,37.2 µM
same,GI50,SF-295 CNS,41.5 µM
same,TGI,SF-295 CNS,> 100 µM
same,GI50,NCI-H460 NSCLC,21.9 µM
same,TGI,NCI-H460 NSCLC,42.1 µM
same,GI50,NCI-H322M lung,0.0896 µM
same,TGI,NCI-H322M lung,12.7 µM
same,GI50,RXF 393 renal,24.8 µM
same,TGI,RXF 393 renal,83.8 µM
same,GI50,U251 glioblastoma,33.2 µM
same,TGI,U251 glioblastoma,> 100 µM
same,GI50,MCF7 breast,18 µM
same,TGI,MCF7 breast,73.7 µM
same,GI50,A498 renal,27.6 µM
same,TGI,A498 renal,> 100 µM
same,GI50,EKVX NSCLC,0.338 µM
same,TGI,EKVX NSCLC,24.9 µM
same,GI50,COLO 205 colon,23 µM
same,TGI,COLO 205 colon,53.8 µM
same,GI50,CCRF-CEM leukemia,15.5 µM
same,TGI,CCRF-CEM leukemia,29.2 µM
same,GI50,KM12 colon,39.2 µM
same,TGI,KM12 colon,> 100 µM
same,GI50,SK-MEL-28 melanoma,28.5 µM
same,TGI,SK-MEL-28 melanoma,> 100 µM
same,GI50,HCT-116 colon,33.4 µM
same,TGI,HCT-116 colon,> 100 µM
same,GI50,SK-MEL-5 melanoma,19.2 µM
same,TGI,SK-MEL-5 melanoma,49.4 µM
same,GI50,SW-620 colon,24.4 µM
same,TGI,SW-620 colon,62.2 µM
same,GI50,HCC-2998 colon,20.9 µM
same,TGI,HCC-2998 colon,50 µM
same,GI50,RPMI-8226 leukemia,18 µM
same,TGI,RPMI-8226 leukemia,36.7 µM
same,GI50,OVCAR-4 ovarian,49.8 µM
same,TGI,OVCAR-4 ovarian,> 100 µM
same,GI50,HS 578T breast,21.5 µM
same,TGI,HS 578T breast,55.9 µM
same,GI50,IGROV1 ovarian,3.27 µM
same,TGI,IGROV1 ovarian,30.3 µM
same,GI50,SR leukemia,1.52 µM
same,TGI,SR leukemia,3.2 µM
same,GI50,MDA-MB-468 breast,0.0291 µM
same,TGI,MDA-MB-468 breast,0.114 µM
same,GI50,M14 melanoma,16 µM
same,TGI,M14 melanoma,41.8 µM
same,GI50,SF-268 CNS,29 µM
same,TGI,SF-268 CNS,> 100 µM
same,GI50,MDA-MB-435 melanoma,17.2 µM
same,TGI,MDA-MB-435 melanoma,34.3 µM
